pIC50: −log10 of the molar value.
What was measured:
HDAC 6 = target: T1, HDAC 6 (Homo sapiens, UniProt Q9UBN7); experiment: Test of HDAC activities, HDAC6 (fluorimetric); type: biochemical; parameters: purchased Calbiochem 382180; conditions: samples at 0.1, 1, 10, 100, 1000 nM; 37° C. 60 minutes; fluorescence Ex 390, Em 460; read-out: HDAC inhibitory activities, HDAC6
T1 sequence (Q9UBN7 1-1215): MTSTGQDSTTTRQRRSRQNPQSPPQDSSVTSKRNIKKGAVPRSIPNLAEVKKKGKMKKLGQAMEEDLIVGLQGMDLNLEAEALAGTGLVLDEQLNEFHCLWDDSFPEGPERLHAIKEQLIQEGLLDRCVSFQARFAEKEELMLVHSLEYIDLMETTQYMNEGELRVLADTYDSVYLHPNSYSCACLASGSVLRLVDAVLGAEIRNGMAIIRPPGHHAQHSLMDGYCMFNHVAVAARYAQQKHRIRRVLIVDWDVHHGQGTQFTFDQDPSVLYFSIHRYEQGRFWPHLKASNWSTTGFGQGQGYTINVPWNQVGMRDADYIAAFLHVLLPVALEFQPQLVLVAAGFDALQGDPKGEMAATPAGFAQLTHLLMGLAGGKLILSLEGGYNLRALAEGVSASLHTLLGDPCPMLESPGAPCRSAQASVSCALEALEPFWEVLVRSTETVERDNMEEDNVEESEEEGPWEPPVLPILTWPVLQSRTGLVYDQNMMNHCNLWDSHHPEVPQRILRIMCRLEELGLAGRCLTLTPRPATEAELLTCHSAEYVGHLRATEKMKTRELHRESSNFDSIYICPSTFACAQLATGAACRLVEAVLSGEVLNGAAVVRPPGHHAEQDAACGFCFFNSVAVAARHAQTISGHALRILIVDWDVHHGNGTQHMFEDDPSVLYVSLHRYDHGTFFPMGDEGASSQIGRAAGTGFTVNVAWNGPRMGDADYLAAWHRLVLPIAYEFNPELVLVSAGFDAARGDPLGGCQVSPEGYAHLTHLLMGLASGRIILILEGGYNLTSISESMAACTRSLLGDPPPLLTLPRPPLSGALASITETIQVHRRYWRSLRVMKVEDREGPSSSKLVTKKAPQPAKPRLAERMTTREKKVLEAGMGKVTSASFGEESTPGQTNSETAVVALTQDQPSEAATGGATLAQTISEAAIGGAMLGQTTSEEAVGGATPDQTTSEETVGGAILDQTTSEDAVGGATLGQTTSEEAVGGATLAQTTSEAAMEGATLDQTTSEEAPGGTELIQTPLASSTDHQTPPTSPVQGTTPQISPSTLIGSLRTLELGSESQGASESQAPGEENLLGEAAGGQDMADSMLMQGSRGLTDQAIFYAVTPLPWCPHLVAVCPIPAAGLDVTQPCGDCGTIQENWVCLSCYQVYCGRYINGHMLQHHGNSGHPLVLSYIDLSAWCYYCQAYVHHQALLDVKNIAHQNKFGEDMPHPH
Description: (§1) The HDAC inhibitory activities of test materials were measured using the HDAC1 Fluorimetric Drug Discovery Assay Kit (Enzolifesciences: BML-AK511) and HDAC6 human recombinant (Calbiochem: 382180). In the HDAC1 assay, the samples were treated with concentrations of 100, 1000, and 10000 nM, and in the HDAC6 assay, the samples were treated with concentrations of 0.1, 1, 10, 100, and 1000 nM. After the treatment of the samples, the samples were reacted at 37° C. for 60 minutes, treated with a developer, and then reacted at 37° C. for 30 minutes. Then, the fluorescence intensity (Ex 390, Em 460) was measured using the FlexStation 3 (Molecular device).

HDAC1 = HDAC1 (Homo sapiens, UniProt Q13547); experiment: Test of HDAC activities, HDAC1 Fluorimetric Drug Discovery Assay Kit; type: biochemical; parameters: purchased Enzolifesciences BML-AK511; conditions: samples at 100, 1000, 10000 nM; 37° C. 60 minutes; fluorescence Ex 390, Em 460; read-out: HDAC inhibitory activities, HDAC1
Description: as §1

Chain of HDAC1 (Q13547 whole entry): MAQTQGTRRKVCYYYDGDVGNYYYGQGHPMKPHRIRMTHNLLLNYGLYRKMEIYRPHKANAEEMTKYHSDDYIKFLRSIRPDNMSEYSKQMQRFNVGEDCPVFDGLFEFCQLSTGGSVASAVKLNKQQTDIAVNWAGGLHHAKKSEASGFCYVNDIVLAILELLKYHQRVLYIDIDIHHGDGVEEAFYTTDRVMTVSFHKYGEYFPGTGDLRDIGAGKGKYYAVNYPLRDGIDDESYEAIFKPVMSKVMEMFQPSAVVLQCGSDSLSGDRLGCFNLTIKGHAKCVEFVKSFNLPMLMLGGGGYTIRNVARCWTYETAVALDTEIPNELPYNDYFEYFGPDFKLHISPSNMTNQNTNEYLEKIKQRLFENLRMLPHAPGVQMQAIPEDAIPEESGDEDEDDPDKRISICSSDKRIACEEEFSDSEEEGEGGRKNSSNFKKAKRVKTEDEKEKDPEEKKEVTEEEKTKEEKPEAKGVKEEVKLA

Cc1ccc(N(Cc2ccc(C(=O)NO)cc2)C(=O)N2CCOCC2)c(F)c1 [Compound 439, N-(2-fluoro-4-methylphenyl)-N-(4-(hydroxycarbamoyl)benzyl)morpholine-4-carboxamide]
pIC50 (HDAC 6): 8.70
pIC50 (HDAC1): 6.20

COc1ccc(C(F)(F)F)cc1N(Cc1ccc(C(=O)NO)cc1)C(=O)N1CCOCC1 [Compound 774, N-(4-(hydroxycarbamoyl)benzyl)-N-(2-methoxy-5-(trifluoromethyl)phenyl)morpholine-4-carboxamide]
pIC50 (HDAC 6): 6.92
pIC50 (HDAC1): 4.91

O=C(NO)c1ccc(CN(C(=O)N2CCCC2)c2ccccn2)cc1 [Compound 358, N-(4-(hydroxycarbamoyl)benzyl)-N-(pyridin-2-yl)pyrrolidine-1-carboxamide]
pIC50 (HDAC 6): 8.05
pIC50 (HDAC1): 5.38

O=C(NO)c1ccc(CN(C(=O)N2CC[C@@H](F)C2)c2cccc(C(F)(F)F)c2)cc1 [Compound 495, (R)-3-fluoro-N-(4-(hydroxycarbamoyl)benzyl)-N-(3-(trifluoromethyl)phenyl)pyrrolidine-1-carboxamide]
pIC50 (HDAC 6): 7.96
pIC50 (HDAC1): 5.48

CN(C)c1ccc(-c2cccc(N(Cc3ccc(C(=O)NO)cc3)C(=O)N3CCOCC3)c2)cn1 [Compound 396, N-(3-(6-(dimethylamino)pyridin-3-yl)phenyl)-N-(4-(hydroxycarbamoyl)benzyl)morpholine-4-carboxamide]
pIC50 (HDAC 6): 8.30
pIC50 (HDAC1): 6.59

O=C(NO)c1ccc(CN(C(=O)N2CCN(Cc3ccccc3)CC2)c2ncccn2)cc1 [Compound 309, 4-benzyl-N-(4-(hydroxycarbamoyl)benzyl)-N-(pyrimidin-2-yl)piperazine-1-carboxamide]
pIC50 (HDAC 6): 8.52

O=C(NO)c1ccc(CN(C(=O)N2CCC2)c2ccccn2)cc1 [Compound 377, N-(4-(hydroxycarbamoyl)benzyl)-N-(pyridin-2-yl)azetidine-1-carboxamide]
pIC50 (HDAC 6): 8.30

O=C(NO)c1ccc(CN(C(=O)N2CCN(CC(=O)N3CCOCC3)CC2)c2ccc(C(F)(F)F)cc2)cc1 [Compound 545, N-(4-(hydroxycarbamoyl)benzyl)-4-(2-morpholino-2-oxoethyl)-N-(4-(trifluoromethyl)phenyl)piperazine-1-carboxamide]
pIC50 (HDAC 6): 7.77
pIC50 (HDAC1): 6.26

CC(=O)N1CCCN(C(=O)N(Cc2ccc(C(=O)NO)cc2)c2ccccn2)CC1 [Compound 450, 4-acetyl-N-(4-(hydroxycarbamoyl)benzyl)-N-(pyridin-2-yl)-1,4-diazepane-1-carboxamide]
pIC50 (HDAC 6): 8.30
pIC50 (HDAC1): 5.19

O=C(NO)c1ccc(CN(C(=O)N2CCOCC2)c2ccc(F)cc2F)cc1 [Compound 413, N-(2,4-difluorophenyl)-N-(4-(hydroxycarbamoyl)benzyl)morpholine-4-carboxamide]
pIC50 (HDAC 6): 9.40
pIC50 (HDAC1): 6.07

C[C@@H]1CN(C(=O)N(Cc2ccc(C(=O)NO)cc2)c2cccc(C(F)(F)F)c2)C[C@H](C)N1Cc1ccccc1 [Compound 802, (3S,5R)-4-benzyl-N-(4-(hydroxycarbamoyl)benzyl)-3,5-dimethyl-N-(3-(trifluoromethyl)phenyl)piperazine-1-carboxamide]
pIC50 (HDAC 6): 8.03
pIC50 (HDAC1): 5.80

O=C(NO)c1ccc(CN(C(=O)N2CCOCC2)c2cccc(C(F)(F)F)c2)c(F)c1 [Compound 532, N-(2-fluoro-4-(hydroxycarbamoyl)benzyl)-N-(3-(trifluoromethyl)phenyl)morpholine-4-carboxamide]
pIC50 (HDAC 6): 8.72
pIC50 (HDAC1): 6.24

O=C(NO)c1ccc(CN(C(=O)N2CCC[C@H]2CO)c2cccc(-c3ccc4c(c3)OCO4)c2)cc1 [Compound 469, (S)—N-(3-(benzo[d][1,3]dioxol-5-yl)phenyl)-N-(4-(hydroxycarbamoyl)benzyl)-2-(hydroxymethyl)pyrrolidine-1-carboxamide]
pIC50 (HDAC 6): 7.92
pIC50 (HDAC1): 5.27

Cc1ccc(N(Cc2ccc(C(=O)NO)cc2)C(=O)N2CC(C)OC(C)C2)c(F)c1 (stereo not shown) [Compound 440, N-(2-fluoro-4-methylphenyl)-N-(4-(hydroxycarbamoyl)benzyl)-2,6-dimethylmorpholine-4-carboxamide]
pIC50 (HDAC 6): 8.70
pIC50 (HDAC1): 6.01

O=C(NO)c1ccc(CN(C(=O)N2CCOCC2)c2cccc(-c3cc(C(F)(F)F)cc(C(F)(F)F)c3)c2)cc1 [Compound 398, N-(3′,5′-bis(trifluoromethyl)biphenyl-3-yl)-N-(4-(hydroxycarbamoyl)benzyl)morpholine-4-carboxamide]
pIC50 (HDAC 6): 7.49
pIC50 (HDAC1): 5.35

CCN1CCN(C(=O)N(Cc2ccc(C(=O)NO)cc2)c2ccc(C)cc2F)CC1 [Compound 453, 4-ethyl-N-(2-fluoro-4-methylphenyl)-N-(4-(hydroxycarbamoyl)benzyl)piperazine-1-carboxamide]
pIC50 (HDAC 6): 8.52
pIC50 (HDAC1): 6.22

CC(C)NC(=O)N1CCC(c2cccc(N(Cc3ccc(C(=O)NO)cc3)C(=O)N3CCOCC3)c2)CC1 [Compound 492, N-(4-(hydroxycarbamoyl)benzyl)-N-(3-(1-(isopropylcarbamoyl)piperidin-4-yl)phenyl)morpholine-4-carboxamide]
pIC50 (HDAC 6): 8.70
pIC50 (HDAC1): 5.90

O=C(NO)c1ccc(CN(C(=O)N2CCCCC2)c2cccc(-c3ccc4c(c3)OCO4)c2)cc1 [Compound 462, N-(3-(benzo[d][1,3]dioxol-5-yl)phenyl)-N-(4-(hydroxycarbamoyl)benzyl)piperidine-1-carboxamide]
pIC50 (HDAC 6): 7.85
pIC50 (HDAC1): 5.71

O=C(NO)c1ccc(CN(C(=O)N2CCC[C@H]2C(F)(F)F)c2cccc(C(F)(F)F)c2)cc1 [Compound 498, (S)—N-(4-(hydroxycarbamoyl)benzyl)-2-(trifluoromethyl)-N-(3-(trifluoromethyl)phenyl)pyrrolidine-1-carboxamide]
pIC50 (HDAC 6): 7.57
pIC50 (HDAC1): 5.33

O=C(NO)c1ccc(CN(C(=O)N2CCN(C(c3ccccc3)c3ccccc3)CC2)c2cccc(C(F)(F)F)c2)cc1 [Compound 718, 4-benzhydryl-N-(4-(hydroxycarbamoyl)benzyl)-N-(3-(trifluoromethyl)phenyl)piperazine-1-carboxamide]
pIC50 (HDAC 6): 6.39
pIC50 (HDAC1): 5.07

CC(=O)N1CCN(C(=O)N(Cc2ccc(C(=O)NO)cc2)c2cccc(F)c2)CC1 [Compound 529, 4-acetyl-N-(3-fluorophenyl)-N-(4-(hydroxycarbamoyl)benzyl)piperazine-1-carboxamide]
pIC50 (HDAC 6): 8.70
pIC50 (HDAC1): 6.24

O=C(NO)c1ccc(CN(C(=O)N2CC=C(c3ccccc3)CC2)c2ccccn2)cc1 [Compound 352, N-(4-(hydroxycarbamoyl)benzyl)-4-phenyl-N-(pyridin-2-yl)-5,6-dihydropyridine-1(2H)-carboxamide]
pIC50 (HDAC 6): 8.15
pIC50 (HDAC1): 5.34

O=C(NO)c1ccc(CN(C(=O)N2CCOCC2)c2cccc(F)c2)cc1 [Compound 530, N-(3-fluorophenyl)-N-(4-(hydroxycarbamoyl)benzyl)morpholine-4-carboxamide]
pIC50 (HDAC 6): 8.85
pIC50 (HDAC1): 6.79

Cc1ccc(N2CCN(C(=O)N(Cc3ccc(C(=O)NO)cc3)c3ccccn3)CC2)cc1C [Compound 379, 4-(3,4-dimethylphenyl)-N-(4-(hydroxycarbamoyl)benzyl)-N-(pyridin-2-yl)piperazine-1-carboxamide]
pIC50 (HDAC 6): 8.40

CN1CCCN(C(=O)N(Cc2ccc(C(=O)NO)cc2)c2ccccn2)CC1 [Compound 376, N-(4-(hydroxycarbamoyl)benzyl)-4-methyl-N-(pyridin-2-yl)-1,4-diazepane-1-carboxamide]
pIC50 (HDAC 6): 8.40

— patent publication US9878986B2, “Compounds for selective histone deacetylase inhibitors, and pharmaceutical composition comprising the same” (CHONG KUN DANG PHARMACEUTICAL CORP., priority 2013, dated 2018)
